Assay [1] has as its target T1, human muscarinic M1 receptor (Homo sapiens, UniProt P11229).
T1 sequence (P11229 1-460): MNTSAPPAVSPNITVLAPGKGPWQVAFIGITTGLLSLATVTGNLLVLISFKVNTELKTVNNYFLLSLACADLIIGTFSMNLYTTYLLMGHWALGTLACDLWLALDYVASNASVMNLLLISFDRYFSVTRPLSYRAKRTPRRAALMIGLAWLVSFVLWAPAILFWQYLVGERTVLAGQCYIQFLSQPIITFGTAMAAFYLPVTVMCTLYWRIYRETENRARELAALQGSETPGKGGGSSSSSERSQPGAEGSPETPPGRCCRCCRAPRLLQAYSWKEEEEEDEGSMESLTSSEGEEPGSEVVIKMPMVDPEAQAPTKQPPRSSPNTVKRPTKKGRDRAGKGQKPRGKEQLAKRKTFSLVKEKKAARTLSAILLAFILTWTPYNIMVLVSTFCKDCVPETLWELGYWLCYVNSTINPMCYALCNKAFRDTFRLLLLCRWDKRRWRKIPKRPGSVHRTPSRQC
Kind of assay: Alphascreen Surefire phospho-ERK1/2 functional assay, M1. The note with it: for EC50: CHO cells stably expressing human M1, phospho-ERK1/2, * = variable results, read-out: pEC50 M1 (converted); for Emax: CHO, read-out: % Emax cf. ACh, M1, CHO cells stably expressing human M1, relative to ACh. Type of assay: cell-based. For orientation: In Alpha technology, singlet oxygen from a donor bead excites a nearby acceptor bead.
Description: CHO cells stably expressing the human muscarinic M1, M2, M3 or M4 receptor were plated (25K/well) onto 96-well tissue culture plates in MEM-alpha+10% dialysed FBS. Once adhered, cells were serum-starved overnight. Agonist stimulation was performed by the addition of 5 μL agonist to the cells for 5 min (37° C.). Media was removed and 50 μL of lysis buffer added. After 15 min, a 4 μL sample was transferred to 384-well plate and 7 μL of detection mixture added. Plates were incubated for 2 h with gentle agitation in the dark and then read on a PHERAstar plate reader.
pEC50 and Emax figures were calculated from the resulting data for each receptor subtype.

Assay [2] concerns the target T2, human muscarinic M2 receptor (Homo sapiens, UniProt P08172).
T2 sequence (P08172 1-466): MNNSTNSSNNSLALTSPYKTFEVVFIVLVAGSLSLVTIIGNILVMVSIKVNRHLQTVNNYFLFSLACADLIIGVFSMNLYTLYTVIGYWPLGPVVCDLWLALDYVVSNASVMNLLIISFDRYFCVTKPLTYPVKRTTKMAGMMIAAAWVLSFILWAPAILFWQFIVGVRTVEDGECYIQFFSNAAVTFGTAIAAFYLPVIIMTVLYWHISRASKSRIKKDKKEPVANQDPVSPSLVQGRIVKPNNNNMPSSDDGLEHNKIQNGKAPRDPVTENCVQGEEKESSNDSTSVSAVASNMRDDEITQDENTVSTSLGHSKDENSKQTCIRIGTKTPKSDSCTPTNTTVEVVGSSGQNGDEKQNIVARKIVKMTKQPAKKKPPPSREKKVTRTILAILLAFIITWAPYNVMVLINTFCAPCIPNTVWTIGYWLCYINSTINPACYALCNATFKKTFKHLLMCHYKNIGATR
Kind of assay: Alphascreen Surefire phospho-ERK1/2 functional assay, M2. As to conditions: for Emax: CHO, read-out: % Emax cf. ACh, M2, CHO cells stably expressing human M2, relative to ACh.

In assay [3] the target is human muscarinic M3 receptor (Homo sapiens, UniProt P20309). As to the kind of experiment: Alphascreen Surefire phospho-ERK1/2 functional assay, M3. The note with it: for Emax: CHO, read-out: % Emax cf. ACh, M3, CHO cells stably expressing human M3, relative to ACh; for EC50: pEC50 M3, CHO cells stably expressing human M3, phospho-ERK1/2, * = variable results.
Assay [4] addresses T3, human muscarinic M4 receptor (Homo sapiens, UniProt P08173).
T3 construct: expressed in transfected cells
T3 sequence (P08173 1-479): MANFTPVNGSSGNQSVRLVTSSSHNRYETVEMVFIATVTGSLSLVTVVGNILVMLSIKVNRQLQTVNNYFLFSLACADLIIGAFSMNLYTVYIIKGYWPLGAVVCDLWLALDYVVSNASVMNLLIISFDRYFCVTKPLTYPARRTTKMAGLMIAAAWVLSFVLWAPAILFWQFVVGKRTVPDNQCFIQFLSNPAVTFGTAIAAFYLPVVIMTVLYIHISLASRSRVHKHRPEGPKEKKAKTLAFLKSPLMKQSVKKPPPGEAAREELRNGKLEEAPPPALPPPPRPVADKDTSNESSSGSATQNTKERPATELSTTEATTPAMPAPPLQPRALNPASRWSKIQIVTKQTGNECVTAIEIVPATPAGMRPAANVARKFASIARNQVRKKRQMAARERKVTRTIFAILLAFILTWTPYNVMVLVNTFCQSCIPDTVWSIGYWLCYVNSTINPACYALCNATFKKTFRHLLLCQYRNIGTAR
As to the kind of experiment: Alphascreen Surefire phospho-ERK1/2 functional assay, M4. Type of assay: cell-based. The note with it: for EC50: CHO cells stably expressing human M4, phospho-ERK1/2, * = variable results, read-out: pEC50 M4 (converted); for Emax: CHO, read-out: % Emax cf. ACh, M4, CHO cells stably expressing human M4, relative to ACh.

SMILES strings stand for the structures.

Sequence of human muscarinic M3 receptor (P20309 whole entry): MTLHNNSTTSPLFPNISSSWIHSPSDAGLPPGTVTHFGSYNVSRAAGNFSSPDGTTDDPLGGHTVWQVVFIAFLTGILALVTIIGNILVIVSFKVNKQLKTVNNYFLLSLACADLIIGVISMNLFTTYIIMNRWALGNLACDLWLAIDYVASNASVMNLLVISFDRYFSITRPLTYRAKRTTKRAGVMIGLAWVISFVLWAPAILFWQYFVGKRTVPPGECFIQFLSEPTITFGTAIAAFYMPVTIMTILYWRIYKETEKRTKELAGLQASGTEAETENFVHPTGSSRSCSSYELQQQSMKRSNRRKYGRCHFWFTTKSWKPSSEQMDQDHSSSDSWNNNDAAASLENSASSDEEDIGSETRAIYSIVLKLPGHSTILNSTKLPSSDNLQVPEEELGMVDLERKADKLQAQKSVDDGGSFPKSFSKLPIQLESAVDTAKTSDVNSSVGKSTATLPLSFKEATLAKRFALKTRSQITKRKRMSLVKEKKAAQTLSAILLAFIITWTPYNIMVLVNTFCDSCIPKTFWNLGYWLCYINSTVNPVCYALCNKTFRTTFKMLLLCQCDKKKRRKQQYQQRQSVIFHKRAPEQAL

For `COC(=O)N1CCC2(CC(N3CCC([C@@H]4CCCN4c4ccccn4)CC3)C2)C1` (single isomer, unassigned) [2-78 Isomer 2], the EC50 in assay [1] was more than 20000 nM; in assay [2], 12.6 µM; in assay [3], more than 20 µM; in assay [4], 126 nM. Further, the Emax (commonly the size of the effect at its maximum, as opposed to the concentration needed) in assay [1] was found to be 11%; in assay [2], 27%; in assay [3], 5%; in assay [4], 49%.
As to `CCOC(=O)N1CCC2(CC(N3CCC([C@@H]4CCCN4c4ccccn4)CC3)C2)C1` (single isomer, unassigned) [2-79 Isomer 2], the EC50 was 501 nM in assay [1], more than 20 µM in assay [2], more than 20 µM in assay [3] and 31.6 nM in assay [4]. Further, the maximal effect (Emax) in assay [1] was found to be 37%; in assay [2] it was 2%; in assay [3], 19%; in assay [4], 70%.
Consider `CCOC(=O)N1CCC2(CC(N3CCC([C@@H]4CCCN4c4ccncc4)CC3)C2)C1` (single isomer, unassigned) [2-80 Isomer 2], for which the EC50 in assay [1] is 126 nM; in assay [2], more than 20 µM; in assay [3], more than 20 µM; in assay [4], 20 nM. Also, the Emax stood at 98% in assay [1], 16% in assay [2], 18% in assay [3] and 107% in assay [4].
In the case of `CCOC(=O)N1CCC2(CC(N3CCC([C@@H]4CCCN4c4nccs4)CC3)C2)C1` (single isomer, unassigned) [2-82 Isomer 2], the EC50 in assay [1] was 501 nM; in assay [2] it was more than 20 µM; in assay [3], more than 20 µM; in assay [4] it was 20 nM. The Emax in assay [1] came to 52%; in assay [2] it was 1%; in assay [3] it was 0%; in assay [4], 70%.
With `CCOC(=O)N1CCC2(CC(N3CCC(N4CCC[C@@H]4C(=O)OC)CC3)C2)C1` (single isomer, unassigned) [2-84 Isomer 2], the EC50 in assay [1] is 251 nM; in assay [2], more than 20 µM; in assay [3], more than 20 µM; in assay [4], 20 nM. Besides, the maximum response (Emax) in assay [1] amounted to 36%; in assay [4], 82%.
With `CCOC(=O)N1CCC2(CC(N3CCC(N4CC(F)(F)C[C@@H]4C(=O)OC)CC3)C2)C1` (single isomer, unassigned) [2-87 Isomer 2], the EC50 was 398 nM in assay [1], more than 20 µM in assay [2], more than 20 µM in assay [3] and 15.8 nM in assay [4]. For the same compound, the Emax in assay [1] was 46%; in assay [2] it was 54%; in assay [3] it was 3%; in assay [4], 100%.
For the compound `CCOC(=O)N1CCC2(CC(N3CCC(N4CC(F)(F)C[C@@H]4C(=O)NC)CC3)C2)C1` (single isomer, unassigned) [2-88 Isomer 2], the EC50 in assay [1] was 316 nM; in assay [2], more than 20 µM; in assay [3], more than 20 µM; in assay [4] it was 39.8 nM. For the same compound, the Emax in assay [1] was found to be 25%; in assay [2] it was 80%; in assay [3], 5%; in assay [4] it was 44%.
On to `CCOC(=O)N1CCC2(CC(N3CCC(N4CC(F)(F)C[C@@H]4C(=O)N(C)C)CC3)C2)C1` (single isomer, unassigned) [2-89 Isomer 2], for which the EC50 is 6310 nM in assay [1], more than 20 µM in assay [2], more than 20 µM in assay [3] and 200 nM in assay [4]. Further, the maximal effect (Emax) in assay [1] came to 37%; in assay [2] it was 68%; in assay [3], 8%; in assay [4] it was 102%.
Turning to `CCOC(=O)N1CCC2(CC(N3CCC(N4CC(F)(F)C[C@@H]4C(N)=O)CC3)C2)C1` (single isomer, unassigned) [2-90 Isomer 2], the EC50 was 158 nM in assay [1], more than 20 µM in assay [2], more than 20 µM in assay [3] and 12.6 nM in assay [4]. In addition, the Emax in assay [1] was 54%; in assay [2], 4%; in assay [3], 1%; in assay [4] it was 53%.
For the compound `CCOC(=O)N1CCC2(CC(N3CCC(N4CC(F)(F)C[C@@H]4C(=O)NOC)CC3)C2)C1` (single isomer, unassigned) [2-91 Isomer 2], the EC50 is 501 nM in assay [1], more than 20 µM in assay [2], more than 20 µM in assay [3] and 79.4 nM in assay [4]. Also, the maximum response (Emax) in assay [1] came out at 40%; in assay [2] it was 12%; in assay [3] it was 10%; in assay [4] it was 67%.
Consider `CCOC(=O)N1CCC2(CC(N3CCC(N4CC(F)(F)C[C@@H]4C(=O)N(C)OC)CC3)C2)C1` (single isomer, unassigned) [2-92 Isomer 2], for which the EC50 in assay [1] is 3160 nM; in assay [2], more than 20 µM; in assay [3] it was more than 20 µM; in assay [4] it was 31.6 nM. Besides, the Emax in assay [1] was found to be 50%; in assay [2] it was 2%; in assay [3], 5%; in assay [4] it was 82%.
`CCOC(=O)N1CCC2(CC(N3CCC(N4CCC[C@]4(C)C(=O)OC)CC3)C2)C1` (single isomer, unassigned) [2-95 Isomer 2]: the EC50 in assay [1] is more than 20000 nM; in assay [2], more than 20 µM; in assay [3], more than 20 µM; in assay [4], 63.1 nM. Moreover, the Emax was 19% in assay [1], 16% in assay [2], 9% in assay [3] and 49% in assay [4].
Regarding `CCOC(=O)N1CCC2(CC(N3CCC(N4CCCC45CCOC5=O)CC3)C2)C1` (single isomer, unassigned) [2-96 Isomer 2, ethyl 2-[4-(6-oxo-7-oxa-1-azaspiro[4.4]non-1-yl)piperidin-1-yl]-6-azaspiro[3.4]octane-6-carboxylate], the EC50 in assay [1] is more than 20000 nM; in assay [2] it was more than 20 µM; in assay [3], more than 20 µM; in assay [4], 126 nM. Moreover, the Emax was found to be 2% in assay [1], 1% in assay [2], 5% in assay [3] and 63% in assay [4].
As to `CCOC(=O)N1CCC2(CC(N3CCC(N4CSC[C@@H]4C(=O)OC)CC3)C2)C1` (single isomer, unassigned) [2-97 Isomer 2], the EC50 in assay [1] was more than 20000 nM; in assay [2] it was more than 20 µM; in assay [3], more than 20 µM; in assay [4], 39.8 nM. The maximum response (Emax) in assay [1] was determined as 5%; in assay [2], 3%; in assay [3] it was 3%; in assay [4] it was 37%.
As for `CCOC(=O)N1CCC2(CC(N3CCC(N4CCC(F)(F)C4)CC3)C2)C1` (single isomer, unassigned) [2-100 Isomer 2, ethyl 2-[4-(3,3-difluoropyrrolidin-1-yl)piperidin-1-yl]-6-azaspiro[3.4]octane-6-carboxylate], the EC50 was more than 20000 nM in assay [1], more than 20 µM in assay [2], more than 20 µM in assay [3] and 200 nM in assay [4]. Also, the Emax was 16% in assay [1], 4% in assay [2], 5% in assay [3] and 55% in assay [4].

The values are drawn from patent publication US9926297B2, “Bicyclic AZA compounds as muscarinic M1 receptor and/or M4 receptor agonists” (Heptares Therapeutics Limited, priority 2014, dated 2018).
